In ChEMBL document CHEMBL3045679, “Microwave-assisted synthesis and pharmacological studies of novel 5-deazaalloxazine derivatives” (2012):
≈ marks a conversion by molar mass, not a printed value. Calls of active or inactive are those of the source. The calls are words filed in the database; no cut-off is given here.

Tests used:
[1] = system: Lipomyces lipofer; experiment: Antifungal activity against Lipomyces lipofer NCIM 3252 at 1000 ug/disk after 72 hr by disk diffusion method; assay type: functional
[2] = system: Lipomyces lipofer; experiment: Antifungal activity against Lipomyces lipofer NCIM 3252 at 500 ug/disk after 72 hr by disk diffusion method; assay type: functional
[3] = system: Candida albicans; experiment: Antifungal activity against Candida albicans NCIM 3471 at 1000 ug/disk after 72 hr by disk diffusion method; assay type: functional
[4] = system: Candida albicans; experiment: Antifungal activity against Candida albicans NCIM 3471 at 500 ug/disk after 72 hr by disk diffusion method; assay type: functional
[5] = system: Rhodotorula mucilaginosa; experiment: Antifungal activity against Rhodotorula mucilaginosa NCIM 3174 at 1000 ug/disk after 72 hr by disk diffusion method; assay type: functional
[6] = system: Rhodotorula mucilaginosa; experiment: Antifungal activity against Rhodotorula mucilaginosa NCIM 3174 at 500 ug/disk after 72 hr by disk diffusion method; assay type: functional
[7] = system: Aspergillus flavus; experiment: Antifungal activity against Aspergillus flavus NCIM 535 at 1000 ug/disk after 72 hr by disk diffusion method; assay type: functional; details: for zone of inhibition at 1000 µg/disc: NCIM 535, 72 h, read-out: DIZ
[8] = system: Aspergillus flavus; experiment: Antifungal activity against Aspergillus flavus NCIM 535 at 500 ug/disk after 72 hr by disk diffusion method; assay type: functional
[9] = system: Aspergillus niger; experiment: Antifungal activity against Aspergillus niger NCIM 1196 at 1000 ug/disk after 72 hr by disk diffusion method; assay type: functional; details: for zone of inhibition at 1000 µg/disc: NCIM 1196, 72 h, read-out: DIZ
[10] = system: Aspergillus niger; experiment: Antifungal activity against Aspergillus niger NCIM 1196 at 500 ug/disk after 72 hr by disk diffusion method; assay type: functional
[11] = system: Penicillium chrysogenum; experiment: Antifungal activity against Penicillium chrysogenum NCIM 707 at 1000 ug/disk after 72 hr by disk diffusion method; assay type: functional
[12] = system: Penicillium chrysogenum; experiment: Antifungal activity against Penicillium chrysogenum NCIM 707 at 500 ug/disk after 72 hr by disk diffusion method; assay type: functional
[13] = system: Streptomyces albus; experiment: Antibacterial activity against Streptomyces albus NCIM 2178 at 1000 ug/disk after 24 hr by disk diffusion method; assay type: functional; details: for zone of inhibition at 1000 µg/disc: NCIM 2178, 24 h, read-out: DIZ
[14] = system: Streptomyces albus; experiment: Antibacterial activity against Streptomyces albus NCIM 2178 at 500 ug/disk after 24 hr by disk diffusion method; assay type: functional, organism-based
[15] = system: Bacillus cereus; experiment: Antibacterial activity against Bacillus cereus NCIM 2155 at 1000 ug/disk after 24 hr by disk diffusion method; assay type: functional; details: NCIM 2155, 24 h, read-out: DIZ
[16] = system: Bacillus cereus; experiment: Antibacterial activity against Bacillus cereus NCIM 2155 at 500 ug/disk after 24 hr by disk diffusion method; assay type: functional; details: for zone of inhibition at 500 µg/disc: NCIM 2155, 24 h, read-out: DIZ
[17] = system: Bacillus subtilis; experiment: Antibacterial activity against Bacillus subtilis NCIM 2063 at 1000 ug/disk after 24 hr by disk diffusion method; assay type: functional; details: NCIM 2063, 24 h, read-out: DIZ
[18] = system: Bacillus subtilis; experiment: Antibacterial activity against Bacillus subtilis NCIM 2063 at 500 ug/disk after 24 hr by disk diffusion method; assay type: functional; details: for zone of inhibition at 500 µg/disc: NCIM 2063, 24 h, read-out: DIZ
[19] = system: Klebsiella aerogenes; experiment: Antibacterial activity against Enterobacter aerogenes NCIM 2239 at 1000 ug/disk after 24 hr by disk diffusion method; assay type: functional; details: NCIM 2239, 24 h, read-out: DIZ
[20] = system: Klebsiella aerogenes; experiment: Antibacterial activity against Enterobacter aerogenes NCIM 2239 at 500 ug/disk after 24 hr by disk diffusion method; assay type: functional
[21] = system: Pseudomonas aeruginosa; experiment: Antibacterial activity against Pseudomonas aeruginosa NCIM 2200 at 1000 ug/disk after 24 hr by disk diffusion method; assay type: functional; details: NCIM 2200, 24 h, read-out: DIZ
[22] = system: Pseudomonas aeruginosa; experiment: Antibacterial activity against Pseudomonas aeruginosa NCIM 2200 at 500 ug/disk after 24 hr by disk diffusion method; assay type: functional
[23] = system: Escherichia coli; experiment: Antibacterial activity against Escherichia coli NCIM 2065 at 1000 ug/disk after 24 hr by disk diffusion method; assay type: functional; details: NCIM 2065, 24 h, read-out: DIZ
[24] = system: Escherichia coli; experiment: Antibacterial activity against Escherichia coli NCIM 2065 at 500 ug/disk after 24 hr by disk diffusion method; assay type: functional; details: NCIM 2065, 24 h, read-out: DIZ
[25] = system: Bacillus subtilis; experiment: Antibacterial activity against Bacillus subtilis NCIM 2063 after 24 hr by broth dilution assay; assay type: functional; details: NCIM 2063, 24 h
[26] = system: Klebsiella aerogenes; experiment: Antibacterial activity against Enterobacter aerogenes NCIM 2239 after 24 hr by broth dilution assay; assay type: functional; details: NCIM 2239, 24 h
[27] = system: Pseudomonas aeruginosa; experiment: Antibacterial activity against Pseudomonas aeruginosa NCIM 2200 after 24 hr by broth dilution assay; assay type: functional; details: NCIM 2200, 24 h
[28] = system: Escherichia coli; experiment: Antibacterial activity against Escherichia coli NCIM 2065 after 24 hr by broth dilution assay; assay type: functional; details: NCIM 2065, 24 h
[29] = system: Lipomyces lipofer; experiment: Antifungal activity against Lipomyces lipofer NCIM 3252 after 72 hr by broth dilution assay; assay type: functional; details: NCIM 3252, 72 h
[30] = system: Aspergillus niger; experiment: Antifungal activity against Aspergillus niger NCIM 1196 after 72 hr by broth dilution assay; assay type: functional; details: NCIM 1196, 72 h
[31] = system: Streptomyces albus; experiment: Antibacterial activity against Streptomyces albus NCIM 2178 after 24 hr by broth dilution assay; assay type: functional; details: NCIM 2178, 24 h
[32] = system: Bacillus cereus; experiment: Antibacterial activity against Bacillus cereus NCIM 2155 after 24 hr by broth dilution assay; assay type: functional; details: NCIM 2155, 24 h

Row | MIC [25] [µg/mL] | MIC [26] [µg/mL] | MIC [27] [µg/mL] | MIC [28] [µg/mL] | MIC [32] [µg/mL] | SMILES | diameter of the inhibition zone (DIZ) [3] | diameter of the inhibition zone (DIZ) [4] | diameter of the inhibition zone (DIZ) [5] | diameter of the inhibition zone (DIZ) [6] | zone of inhibition at 1000 µg/disc [7] [mm] | diameter of the inhibition zone (DIZ) [8] | diameter of the inhibition zone (DIZ) [12] | diameter of the inhibition zone (DIZ) [14] | zone of inhibition at 1000 µg/disc [15] [mm] | zone of inhibition at 1000 µg/disc [17] [mm] | zone of inhibition at 1000 µg/disc [19] [mm] | diameter of the inhibition zone (DIZ) [20] | zone of inhibition at 1000 µg/disc [21] [mm] | zone of inhibition at 1000 µg/disc [23] [mm] | zone of inhibition at 500 µg/disc [24] [mm] | other results
1 | 31.2 (≈ 128 µM) | 15.6 (≈ 64.1 µM) | 6.5 (≈ 26.7 µM) | 31.2 (≈ 128 µM) | 31.2 (≈ 128 µM) | Cc1cccc2cc3c(=O)[nH]c(=S)[nH]c3nc12 | inactive | inactive | inactive | inactive | 10 | inactive | inactive | inactive | 13 | 12 | 10 | inactive | 12 | 11 | 8 | zone of inhibition at 1000 µg/disc ([1]; NCIM 3252, 72 h, read-out: DIZ): 10 mm; zone of inhibition at 500 µg/disc ([2]; NCIM 3252, 72 h, read-out: DIZ): 8 mm; zone of inhibition at 1000 µg/disc [9]: 16 mm; zone of inhibition at 500 µg/disc ([10]; NCIM 1196, 72 h, read-out: DIZ): 12 mm; zone of inhibition at 1000 µg/disc ([11]; NCIM 707, 72 h, read-out: DIZ): 9 mm; zone of inhibition at 1000 µg/disc [13]: 12 mm; diameter of the inhibition zone (DIZ) [16]: inactive; zone of inhibition at 500 µg/disc [18]: 9 mm; diameter of the inhibition zone (DIZ) [22]: inactive; MIC [29]: 125 µg/mL (≈ 514 µM); MIC [30]: 3.9 µg/mL (≈ 16 µM); MIC [31]: 125 µg/mL (≈ 514 µM)
2 | 31.2 (≈ 126 µM) | 62.5 (≈ 252 µM) | 31.2 (≈ 126 µM) | 7.8 (≈ 31.5 µM) | 31.2 (≈ 126 µM) | O=c1[nH]c(=O)c2cc3cc(Cl)ccc3nc2[nH]1 |  | inactive |  | inactive |  | inactive | inactive | inactive | 10 | 12 | 8 | inactive | 12 | 12 | 9 | diameter of the inhibition zone (DIZ) [1]: inactive; diameter of the inhibition zone (DIZ) [2]: inactive; zone of inhibition at 1000 µg/disc ([3]; NCIM 3471, 72 h, read-out: DIZ): 10 mm; zone of inhibition at 1000 µg/disc ([5]; NCIM 3174, 72 h, read-out: DIZ): 9 mm; diameter of the inhibition zone (DIZ) [7]: inactive; diameter of the inhibition zone (DIZ) [9]: inactive; diameter of the inhibition zone (DIZ) [10]: inactive; diameter of the inhibition zone (DIZ) [11]: inactive; zone of inhibition at 1000 µg/disc [13]: 10 mm; zone of inhibition at 500 µg/disc [16]: 8 mm; zone of inhibition at 500 µg/disc [18]: 8 mm; diameter of the inhibition zone (DIZ) [22]: inactive; MIC [31]: 62.5 µg/mL (≈ 252 µM)
3 | 31.2 (≈ 107 µM) | 62.5 (≈ 214 µM) | 31.2 (≈ 107 µM) | 7.8 (≈ 26.7 µM) | 62.5 (≈ 214 µM) | O=c1[nH]c(=O)c2cc3cc(Br)ccc3nc2[nH]1 | inactive | inactive | inactive | inactive | 11 | inactive | inactive | inactive | 11 | 12 | 10 | inactive | 12 | 11 | 7 | diameter of the inhibition zone (DIZ) [1]: inactive; diameter of the inhibition zone (DIZ) [2]: inactive; zone of inhibition at 1000 µg/disc [9]: 12 mm; diameter of the inhibition zone (DIZ) [10]: inactive; diameter of the inhibition zone (DIZ) [11]: inactive; diameter of the inhibition zone (DIZ) [13]: inactive; zone of inhibition at 500 µg/disc [16]: 8 mm; diameter of the inhibition zone (DIZ) [18]: inactive; zone of inhibition at 500 µg/disc ([22]; NCIM 2200, 24 h, read-out: DIZ): 9 mm; MIC [30]: 62.5 µg/mL (≈ 214 µM)
